Results on 6 molecules are retold here after ChEMBL document CHEMBL4052807 (Bioorg Med Chem Lett, 2017).

Data set [1] concerns the target T1, Leucine-rich repeat serine/threonine-protein kinase 2 (Homo sapiens, UniProt Q5S007). In words: Inhibition of LRRK2 (unknown origin) by HTRF assay. Background: In TR-FRET formats the signal depends on donor and acceptor labels being close together.
The test system of the next data set is Liver. In words: Intrinsic clearance in human liver microsomes. In kind it is ADME, microsome. In general terms: Liver microsomes are vesicles of endoplasmic reticulum, rich in cytochrome P450 enzymes.
The nature of data set [2]: Solubility of the compound. Type of data set: physicochemical.
In data set [3] the test system is Mus musculus. In words: Volume of distribution at steady state in Swiss albino mouse at 1 mg/kg, iv or 10 mg/kg, po. Type of data set: ADME, organism-based. Conditions: in vivo.
A short description of data set [4]: Half life in Swiss albino mouse at 1 mg/kg, iv or 10 mg/kg, po. In kind it is ADME, organism-based. Conditions: in vivo.
The test system of data set [5] is Mus musculus. Put plainly: Dose normalized AUC in Swiss albino mouse at 1 mg/kg, iv. In kind it is ADME, organism-based. Conditions: in vivo.
Data set [6] in a line: Passive permeability in MDCK cells expressing human MDR1. Type of data set: ADME, cell-based, Canis lupus familiaris. Conditions: dog, read-out: permeability.
Data set [7] is described as follows: Protein binding in mouse brain. Type of data set: ADME, tissue-based. As to conditions: read-out: PB (converted).
Data set [8] has as its target T1, Leucine-rich repeat serine/threonine-protein kinase 2. Put plainly: Inhibition of human LRRK2 using RLGRDKYKTLRQIRQ as substrate at 1uM in presence of [gamma-33P]-ATP.
Data set [9] is described as follows: Half life in Swiss albino mouse at 1 mg/kg, iv or 2 mg/kg, po. In kind it is ADME, organism-based. As to conditions: in vivo.
The nature of data set [10]: Volume of distribution at steady state in Swiss albino mouse at 1 mg/kg, iv or 2 mg/kg, po. Type of data set: ADME, organism-based. As to conditions: in vivo, read-out: Vdss.
Data set [11] in a line: Blood clearance in Swiss albino mouse at 1 mg/kg, iv or 2 mg/kg, po. In kind it is ADME, organism-based. Conditions: whole blood.
Data set [12] deals with T2, SRSF protein kinase 3 (Homo sapiens, UniProt Q9UPE1). Put plainly: Inhibition of human MSSK1 using GRSRSRSRSR as substrate at 1uM in presence of [gamma-33P]-ATP.
Data set [13] concerns the target T2, SRSF protein kinase 3. In words: Inhibition of human MSSK1 GRSRSRSRSR as substrate in presence of [gamma-33P]-ATP.
A short description of data set [14]: Oral bioavailability in Swiss albino mouse at 2 mg/kg. Type of data set: ADME, organism-based. As to conditions: in vivo.
A short description of data set [15]: Ratio of drug level in Swiss albino mouse brain to blood at 1 mg/kg, iv or 2 mg/kg, po. In kind it is ADME, organism-based.

≈ marks a conversion by molar mass, not a printed value.

T1 sequence (Q5S007 whole entry): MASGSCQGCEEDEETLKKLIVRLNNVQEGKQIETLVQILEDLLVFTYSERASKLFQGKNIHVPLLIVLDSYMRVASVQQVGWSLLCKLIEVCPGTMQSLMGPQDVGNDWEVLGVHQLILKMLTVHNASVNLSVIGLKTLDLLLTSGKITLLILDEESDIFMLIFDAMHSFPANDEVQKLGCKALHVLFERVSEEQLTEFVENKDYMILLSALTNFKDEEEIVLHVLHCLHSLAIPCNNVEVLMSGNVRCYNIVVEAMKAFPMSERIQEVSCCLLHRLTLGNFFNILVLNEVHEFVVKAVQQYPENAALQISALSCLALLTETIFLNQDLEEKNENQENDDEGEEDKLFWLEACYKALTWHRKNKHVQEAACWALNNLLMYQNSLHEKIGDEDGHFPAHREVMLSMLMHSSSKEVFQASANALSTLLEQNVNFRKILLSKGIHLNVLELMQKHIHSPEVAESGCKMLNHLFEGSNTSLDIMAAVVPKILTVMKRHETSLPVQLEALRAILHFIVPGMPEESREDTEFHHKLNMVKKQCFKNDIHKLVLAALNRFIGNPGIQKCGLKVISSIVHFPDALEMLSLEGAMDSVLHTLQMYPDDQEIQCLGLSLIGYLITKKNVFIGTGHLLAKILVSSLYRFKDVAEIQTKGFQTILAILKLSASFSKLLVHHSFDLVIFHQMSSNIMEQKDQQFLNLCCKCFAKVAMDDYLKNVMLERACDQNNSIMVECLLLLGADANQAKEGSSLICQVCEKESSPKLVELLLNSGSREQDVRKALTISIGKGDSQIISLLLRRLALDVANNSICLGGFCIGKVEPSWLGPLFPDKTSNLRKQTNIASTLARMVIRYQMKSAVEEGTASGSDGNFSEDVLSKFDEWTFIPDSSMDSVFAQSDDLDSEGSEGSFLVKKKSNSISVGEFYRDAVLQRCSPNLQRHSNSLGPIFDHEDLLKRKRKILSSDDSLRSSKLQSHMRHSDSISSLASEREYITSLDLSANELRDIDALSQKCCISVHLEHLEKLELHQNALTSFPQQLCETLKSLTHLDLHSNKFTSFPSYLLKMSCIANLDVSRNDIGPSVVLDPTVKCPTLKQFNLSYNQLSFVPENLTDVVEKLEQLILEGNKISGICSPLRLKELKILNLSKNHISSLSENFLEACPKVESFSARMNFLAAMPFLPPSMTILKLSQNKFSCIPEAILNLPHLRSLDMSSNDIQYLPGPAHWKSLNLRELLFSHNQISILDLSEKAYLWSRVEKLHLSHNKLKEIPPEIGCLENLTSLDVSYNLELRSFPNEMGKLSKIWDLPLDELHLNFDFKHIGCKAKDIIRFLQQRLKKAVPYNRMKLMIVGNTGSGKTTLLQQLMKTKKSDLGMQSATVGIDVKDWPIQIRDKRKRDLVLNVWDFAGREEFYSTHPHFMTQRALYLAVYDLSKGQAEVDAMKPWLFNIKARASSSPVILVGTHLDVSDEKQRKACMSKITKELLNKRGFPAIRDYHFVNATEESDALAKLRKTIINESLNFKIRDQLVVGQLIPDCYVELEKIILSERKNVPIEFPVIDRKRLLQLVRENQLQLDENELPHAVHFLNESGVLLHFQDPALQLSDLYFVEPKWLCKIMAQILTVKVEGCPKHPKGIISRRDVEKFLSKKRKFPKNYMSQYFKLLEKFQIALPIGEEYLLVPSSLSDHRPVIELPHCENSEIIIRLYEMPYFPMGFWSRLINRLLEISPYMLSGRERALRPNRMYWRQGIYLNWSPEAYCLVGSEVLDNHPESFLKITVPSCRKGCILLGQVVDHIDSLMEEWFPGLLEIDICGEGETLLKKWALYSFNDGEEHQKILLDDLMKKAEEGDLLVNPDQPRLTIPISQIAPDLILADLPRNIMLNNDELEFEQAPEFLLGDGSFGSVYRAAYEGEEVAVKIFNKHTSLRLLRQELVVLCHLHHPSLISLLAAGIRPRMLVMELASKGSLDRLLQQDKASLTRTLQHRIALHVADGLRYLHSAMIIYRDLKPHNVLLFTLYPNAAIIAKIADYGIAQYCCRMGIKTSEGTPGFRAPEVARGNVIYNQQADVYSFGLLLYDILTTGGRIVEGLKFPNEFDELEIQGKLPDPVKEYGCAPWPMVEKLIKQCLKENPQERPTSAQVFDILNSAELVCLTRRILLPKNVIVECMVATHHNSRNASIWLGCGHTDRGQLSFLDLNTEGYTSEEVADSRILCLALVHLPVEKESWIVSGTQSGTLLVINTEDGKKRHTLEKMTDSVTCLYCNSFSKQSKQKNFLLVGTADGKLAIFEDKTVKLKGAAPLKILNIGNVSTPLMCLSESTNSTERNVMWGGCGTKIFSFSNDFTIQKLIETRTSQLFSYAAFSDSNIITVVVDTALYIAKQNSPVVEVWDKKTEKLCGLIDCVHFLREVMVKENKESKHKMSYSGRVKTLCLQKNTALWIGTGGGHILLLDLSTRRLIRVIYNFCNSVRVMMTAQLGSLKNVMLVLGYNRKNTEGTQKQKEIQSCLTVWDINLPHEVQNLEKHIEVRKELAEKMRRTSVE
T2 sequence (Q9UPE1 whole entry): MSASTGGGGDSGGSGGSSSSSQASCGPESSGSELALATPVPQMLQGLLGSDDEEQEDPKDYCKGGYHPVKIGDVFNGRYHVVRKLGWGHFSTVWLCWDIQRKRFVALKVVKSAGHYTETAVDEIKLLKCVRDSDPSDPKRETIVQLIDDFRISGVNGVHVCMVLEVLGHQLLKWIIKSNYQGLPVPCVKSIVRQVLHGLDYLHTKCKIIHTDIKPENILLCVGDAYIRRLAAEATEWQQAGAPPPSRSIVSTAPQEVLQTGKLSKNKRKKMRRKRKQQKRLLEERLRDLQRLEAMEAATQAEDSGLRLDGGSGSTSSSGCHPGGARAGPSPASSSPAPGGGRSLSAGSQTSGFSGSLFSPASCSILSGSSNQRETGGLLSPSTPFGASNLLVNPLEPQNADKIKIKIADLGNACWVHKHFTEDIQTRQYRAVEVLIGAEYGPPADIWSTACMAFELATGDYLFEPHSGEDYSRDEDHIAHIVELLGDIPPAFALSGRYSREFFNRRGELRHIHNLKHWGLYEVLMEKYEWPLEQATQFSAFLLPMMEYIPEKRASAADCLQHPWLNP

For orientation: IC50 means the concentration that gives 50% inhibition. Usually solubility stands for how much of the substance goes into solution per volume. A high value points to much dissolved substance. `O=C(Nc1cccnc1)c1cc(Br)ccc1OCc1ccccc1` showed an IC50 in [1] of 0.0126 µM. Moreover, in the data set with Liver, the CLH stood at 2.8 mL/min/g. The molecule further showed a solubility in [2] below 1 µM.

The half-life is how long it takes for the measured level to halve. A high value points to slow loss. In the data set on Mus musculus [3], `O=C(Nc1cccnc1)c1cc(-c2ccnc(F)c2)ccc1OCc1ccccc1` showed a Vdss of 2.3 L/kg. Moreover, the half-life in data set [4] was 1.1 h. Further, in data set [1], half-maximal inhibition (IC50) was put at 0.01 µM. Also, the AUC/dose in the data set on Mus musculus [5] turned out to be 520 ng·h/mL/mg/kg. In addition, the Papp in data set [6] is above 100 nm/s. In addition, in the data set with Liver, the CLH was 1.2 mL/min/g. In data set [7], the fraction unbound is 0.003.

In general, inhibition refers to the share of the control response that was lost under treatment. A word on the bioavailability: it is dose-corrected exposure relative to a reference, in per cent. One may read the Kp as tissue or fluid exposure divided by exposure in the circulation. With `O=C(Nc1cccnc1)c1cc(C(F)(F)F)ccc1OCc1ccc(F)cc1`, the inhibition (in data set [8]; at SRSF protein kinase 3 [12]) was above 40% each time. Also, the AUC/dose with Mus musculus [5] stood at 597 ng·h/mL/mg/kg. The half-life in [9] is 1.2 h. Moreover, in [6], the Papp was above 100 nm/s. Further, the Vd in data set [10] was determined as 2.7 L/kg. This molecule yielded a clearance in [11] of 1.66 L/h/kg. Besides, in the data set with Liver, the CLH was found to be 0.8 mL/min/g. In addition, the IC50 at SRSF protein kinase 3 [13] was 0.158 µM. In addition, in [7], the fraction unbound was 0.004. In data set [14], the bioavailability worked out at 91.6%. In addition, the Kp in [15] was determined as 1.3. Further, the concentration in solution in data set [2] (solubility) was 11 µM (≈ 4.29 µg/mL).

In turn, `Cn1cc(-c2ccc(OCc3ccc(F)cc3)c(C(=O)Nc3cccnc3)c2)cn1` yielded an AUC/dose in the data set with Mus musculus [5] of 253 ng·h/mL/mg/kg. In [9], this molecule had a half-life of 0.4 h. Further, in [6], the Papp was above 100 nm/s. The Vd in data set [10] stood at 1.6 L/kg. Moreover, the bioavailability in [14] amounted to 10%.

`O=C(Nc1cccnc1)c1cc(Br)ccc1OCc1ccccc1F` gave an IC50 in [1] of 0.00794 µM.

For `O=C(Nc1cccnc1)c1cc(Br)ccc1OCc1cccc(F)c1`, the IC50 in [1] is 0.0158 µM.
